Source: paper PMC9025560, “A Comparison of Evans Blue and 4-(p-Iodophenyl)butyryl Albumin Binding Moieties on an Integrin αvβ6 Binding Peptide” (Pharmaceutics, 2022)
Where two headings read alike, the source gives them in different places.

What was measured:
[1] = Blocking biodistribution with pre-administered metal free peptide; type: in vivo, mice; conditions: female, athymic nu/nu-nude, mouse, intravenous, total radioactivity, 4 h p.i., metal free peptide 10 min before, n = 1
Procedure: For blocking studies, the metal free peptides 1 or 2 (~220 nmol, 1.3 mg in 100 μL PBS), respectively, were injected i.v. (n = 1/peptide) as described above 10 min prior to the injection of matching radiolabeled [^64Cu]1 or [^64Cu]2 (3.7–5.55 MBq, 100 μL PBS). After a conscious 4 h uptake period, the animals were anesthetized, sacrificed, tissues rapidly collected, and analyzed as described above. Decay-corrected radioactivity concentrations are expressed as a percentage of injected dose per gram of tissue (% ID/g) (Figure S23).

[2] = Stability in human serum at 37 °C; type: in vitro ADME; conditions: read-out: Stability in human serum, % intact
Procedure: (§1) For serum stability, mouse serum or human serum (0.5 mL, both purchased from Sigma-Aldrich) was combined with an aliquot of each of the peptides [^64Cu]1 and [^64Cu]2 (≤25 μL, 14.8–22.2 MBq) and incubated at 37 °C. At each time point (1, 4, and 24 h) an aliquot (50–200 μL) was taken, proteins precipitated with ethanol, and removed by pelleting at 1500 (RCF) for 4 min. The ethanol solution was diluted with water (1 mL) and analyzed by RP-HPLC as previously described.

BxPC-3 xenograft tumors = experiment: Biodistribution in mice bearing BxPC-3 xenograft tumors; type: in vivo
In short: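 Female athymic nu/nu mice bearing subcutaneous BxPC-3 (integrin αvβ6-positive) flank tumors 0.5–1 cm, given [^64Cu]-labelled peptides (3.7–5.55 MBq) i.v. via tail vein. Tissues taken at 4, 24, 48 and 72 h p.i. and γ-counted; decay-corrected uptake reported as % ID/g, mean ± SD.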

[3] = Stability in mouse serum at 37 °C; type: in vitro ADME
Procedure: as §1

With `CC(C)C[C@H](NC(=O)[C@H](CC(=O)O)NC(=O)CNC(=O)[C@H](CCCNC(=N)N)NC(=O)[C@H](CC(C)C)NC(=O)[C@H](CC(N)=O)NC(=O)[C@@H]1CCCN1C(=O)[C@@H](NC(=O)[C@H](C)NC(=O)[C@H](CC(N)=O)NC(=O)CCOCCOCCOCCOCCOCCOCCOCCOCCOCCOCCOCCOCCOCCOCCOCCOCCOCCOCCOCCOCCOCCOCCOCCOCCOCCOCCOCCOCCNC(=O)[C@H](CCCCNC(=O)[C@H](CC(=O)O)NC(=O)CCCNC(=O)CCCc1ccc(I)cc1)NC(=O)CN1CCN(CC(=O)O)CCN(CC(=O)O)CCN(CC(=O)O)CC1)C(C)C)C(=O)N[C@@H](CCC(N)=O)C(=O)N[C@H](C(=O)N[C@@H](CC(C)C)C(=O)N[C@@H](C)C(=O)N[C@@H](CCC(N)=O)C(=O)N[C@@H](CCCNC(=N)N)C(=O)N[C@H](C(=O)N[C@@H](C)C(=O)N[C@@H](CCCNC(=N)N)C(=O)N[C@H](C(=O)NCCOCCOCCOCCOCCOCCOCCOCCOCCOCCOCCOCCOCCOCCOCCOCCOCCOCCOCCOCCOCCOCCOCCOCCOCCOCCOCCOCCOCCC(N)=O)[C@@H](C)O)C(C)C)C(C)C` [[^64Cu]2, [^64Cu]Cu DOTA-IP-αvβ6-BP, metal not drawn] the tissue uptake at 4 h ([1]; BxPC-3 tumor, read-out: BxPC-3 Tumor uptake, blocked) was 2.89 %ID/g, the tissue uptake at 4 h ([1]; blood, read-out: Blood uptake, blocked) was 3.98 %ID/g and the tissue uptake at 4 h ([1]; bone, read-out: Bone uptake, blocked) was 0.5 %ID/g. For the same compound, the tissue uptake at 4 h ([1]; brain, read-out: Brain uptake, blocked) was 0.09 %ID/g, the tissue uptake at 4 h ([1]; gall bladder, read-out: Gall Bladder uptake, blocked) was 1.64 %ID/g and the tissue uptake at 4 h ([1]; heart, read-out: Heart uptake, blocked) was 1.31 %ID/g. The tissue uptake at 4 h ([1]; kidneys, read-out: Kidneys uptake, blocked) was 16.8 %ID/g, the tissue uptake at 4 h ([1]; large intestines, read-out: Lg. Intestines uptake, blocked) was 1.26 %ID/g and the tissue uptake at 4 h ([1]; liver, read-out: Liver uptake, blocked) was 2.04 %ID/g. For the same compound, the tissue uptake at 4 h ([1]; lung, read-out: Lung uptake, blocked) was 2.08 %ID/g, the tissue uptake at 4 h ([1]; muscle, read-out: Muscle uptake, blocked) was 0.5 %ID/g and the tissue uptake at 4 h ([1]; pancreas, read-out: Pancreas uptake, blocked) was 0.76 %ID/g. It also gave a tissue uptake at 4 h ([1]; skin, read-out: Skin uptake, blocked) of 1.26 %ID/g, a tissue uptake at 4 h ([1]; small intestines, read-out: Sm. Intestines uptake, blocked) of 1.18 %ID/g and a tissue uptake at 4 h ([1]; stomach, read-out: Stomach uptake, blocked) of 1.2 %ID/g. It also gave a remaining at 1 h ([2]; 1 h) of 99%, a remaining at 4 h ([2]; 4 h) of 93% and a remaining at 24 h ([2]; 24 h) of 90%. For the same compound, the Tumor-Blood ratio (BxPC-3 xenograft tumors; 4 h p.i.) was > 4/1, the Tumor-Kidney ratio (BxPC-3 xenograft tumors; 4 h p.i.) was 0.23 ± 0.02 and the “Tumor-Lg Intestines ratio” value (BxPC-3 xenograft tumors; 4 h p.i.) was 0.78 ± 0.10. The Tumor-Liver ratio (BxPC-3 xenograft tumors; 4 h p.i.) was 3.2–4.9, the Tumor-Muscle ratio (BxPC-3 xenograft tumors; 4 h p.i.) was > 8/1 and the “Tumor-Sm Intestines ratio” value (BxPC-3 xenograft tumors; 4 h p.i.) was 0.80 ± 0.07. The Tumor-Stomach ratio (BxPC-3 xenograft tumors; 4 h p.i.) was 0.43 ± 0.07, the “BxPC-3 Tumor uptake” value (BxPC-3 xenograft tumors; 4 h p.i., i.v.) was over 7.5 % ID/g and the Kidneys uptake (BxPC-3 xenograft tumors; 4 h p.i., i.v.) was 33.6 ± 5.4 % ID/g. For the same compound, the Stomach uptake (BxPC-3 xenograft tumors; 4 h p.i., i.v.) was 18.1 ± 2.9 % ID/g, the Tumor-Blood ratio (BxPC-3 xenograft tumors; 4 h p.i., listed as [64Cu]2) was 6.15 ± 0.47 and the Tumor-Liver ratio (BxPC-3 xenograft tumors; 4 h p.i., listed as [64Cu]2) was 4.89 ± 0.63. It also gave a Tumor-Muscle ratio (BxPC-3 xenograft tumors; 4 h p.i., listed as [64Cu]2) of 8.16 ± 2.41, a Tumor-Blood ratio (BxPC-3 xenograft tumors; 24 h p.i.) of 21.86 ±5.94 and a Tumor-Kidney ratio (BxPC-3 xenograft tumors; 24 h p.i.) of 0.20 ± 0.06. The “Tumor-Lg Intestines ratio” value (BxPC-3 xenograft tumors; 24 h p.i.) was 0.81 ±0.24, the Tumor-Liver ratio (BxPC-3 xenograft tumors; 24 h p.i.) was 2.72 ± 0.62 and the Tumor-Muscle ratio (BxPC-3 xenograft tumors; 24 h p.i.) was 5.87 ±2.04. The “Tumor-Sm Intestines ratio” value (BxPC-3 xenograft tumors; 24 h p.i.) was 0.97 ±0.27, the Tumor-Stomach ratio (BxPC-3 xenograft tumors; 24 h p.i.) was 0.39 ±0.09 and the Tumor-Blood ratio (BxPC-3 xenograft tumors; 48 h p.i.) was 22.11 ± 14.41. The Tumor-Kidney ratio (BxPC-3 xenograft tumors; 48 h p.i.) was 0.35 ± 0.14, the “Tumor-Lg Intestines ratio” value (BxPC-3 xenograft tumors; 48 h p.i.) was 1.10 ± 0.47 and the Tumor-Liver ratio (BxPC-3 xenograft tumors; 48 h p.i.) was 2.46 ± 0.97. The Tumor-Muscle ratio (BxPC-3 xenograft tumors; 48 h p.i.) was 6.68 ± 2.42, the “Tumor-Sm Intestines ratio” value (BxPC-3 xenograft tumors; 48 h p.i.) was 1.81 ± 0.61 and the Tumor-Stomach ratio (BxPC-3 xenograft tumors; 48 h p.i.) was 0.67 ± 0.27. The Tumor-Blood ratio (BxPC-3 xenograft tumors; 72 h p.i.) was 28.82 ± 2.64, the Tumor-Kidney ratio (BxPC-3 xenograft tumors; 72 h p.i.) was 0.44 ± 0.14 and the “Tumor-Lg Intestines ratio” value (BxPC-3 xenograft tumors; 72 h p.i.) was 1.63 ±0.32. For the same compound, the Tumor-Liver ratio (BxPC-3 xenograft tumors; 72 h p.i.) was 3.77 ± 0.72, the Tumor-Muscle ratio (BxPC-3 xenograft tumors; 72 h p.i.) was 6.70 ±1.74 and the “Tumor-Sm Intestines ratio” value (BxPC-3 xenograft tumors; 72 h p.i.) was 4.01 ±1.10. The Tumor-Stomach ratio (BxPC-3 xenograft tumors; 72 h p.i.) was 1.55 ±0.08, the “Fold increase in tumor accumulation over non-ABM [64Cu]Cu DOTA-αvβ6-BP” value (BxPC-3 xenograft tumors; BxPC-3 tumor model) was over 3 fold and the “Fold higher stability than [64Cu]1 in mouse serum” value ([3]; 24 h) was 3.4 fold. The remaining at 1 h ([3]; mouse, mouse serum, 1 h, read-out: Stability in mouse serum, % intact) was 92%, the remaining at 4 h ([3]; mouse, mouse serum, 4 h, read-out: Stability in mouse serum, % intact) was 83% and the remaining at 24 h ([3]; mouse, mouse serum, 24 h, read-out: Stability in mouse serum, % intact) was 48%.
